# From patent publication US8882877B2, “Boron-containing synergistic urea and preparation method and application thereof” (Beijing J-Tec Technology Co., Ltd, priority 2012, dated 2014)
# Key:
# [1] = test system: celery; test: Celery fertilizer test (equivalent and decrement fertilizer); assay type: in vivo
# Text: Test Three: Celery Fertilizer Test 1. Test material: The tested fertilizer is the boron-containing synergistic urea developed and supplied by Beijing J-Tec Technology Co., Ltd. (the boron-containing synergistic urea (1) in Embodiment 3) while the control fertilizer is ordinary small granular urea and large granular urea in line with national standards: the tested vegetable is celery. Area under jurisdiction of […], Shandong Province 3. Test Method: equivalent fertilizer test area and decrement fertilizer test area are arranged, two treatment areas are provided in each test area, and each treatment area is arranged repeatedly for 3 times, ranked in random area and group. Treatment Area 1: the boron-containing synergistic urea is applied, calculated by 70 kg per mu, and flushed together with water after emergence of seedlings; Treatment Area 2: ordinary small granular urea (as a control area, ck), calculated by 70 kg per mu, and flushed together with water after emergence of seedlings. Treatment Area 1: the boron-containing synergistic urea is applied with a decrement of 20%, calculated by 56 kg per mu, base fertilizer and additional fertilizer each makes up 50%; Treatment Area 2: ordinary large granular urea, calculated by 70 kg per mu, base fertilizer and additional fertilizer each makes up 50%. 4. Test Requirement: The celery in each treatment area is harvested, weighed, and calculated separately during each collection and harvest. No other fertilizer is applied during the whole test period, and other cultivation and management measures are the same.
# [2] = test system: tomato; test: Tomato fertilizer test (equivalent and decrement fertilizer); assay type: in vivo
# Text: Test Four: Tomato Fertilizer Test
# Test Site Laiyang: City, Shandong Province.
# Grow seedling in greenhouse at Feb. 24, 2011, and plant in the greenhouse with a tomato plantation density of 4200 plant/mu.
# (§1) 1. The tested fertilizer is the boron-containing synergistic urea developed and supplied by Beijing J-Tec Technology Co., Ltd. (the boron-containing synergistic urea (1) in Embodiment 3, under a trade name of “polypeptide chelated potassium”) while the control fertilizer is ordinary small granular urea and large granular urea in line with national standards; the tested vegetable is tomato (variety of “Millennium”, ? ).
# (§2) 2. Test Method: equivalent fertilizer test area and decrement fertilizer test area are arranged, two treatment areas are provided in each test area, and each treatment area is arranged repeatedly for 3 times, ranked in random area and group, each treatment area has an area of 20 m^2 (5 m long, 4 m wide).
# Treatment Area 1: the boron-containing synergistic urea is applied, calculated by 70 kg per mu, and flushed together with water after emergence of seedlings;
# Treatment Area 2: ordinary small granular urea (as a control area, ck), calculated by 70 kg per mu, and flushed together with water after emergence of seedlings.
# Treatment Area 1: the boron-containing synergistic urea is applied with a decrement of 20%, calculated by 56 kg per mu, base fertilizer and additional fertilizer each makes up 50%;
# Treatment Area 2: ordinary large granular urea (as a control area, ck), calculated by 70 kg per mu, base fertilizer and additional fertilizer each makes up 50%.
# 3. Test Requirement: The tomato in each treatment area is harvested, weighed, and calculated separately during each collection and harvest. No other fertilizer is applied during the whole test period, and other cultivation and management measures are the same.
# Select one plot (12 plots in total, indicated as 1st plot, 2nd plot and 3rd plot corresponding to each test) randomly from each treatment area 1 and treatment area 2 (control area) respectively, all are 1 m long, 1.45 m wide, and the harvested tomato is weighed on site, and results are as follows: […]
# [3] = test system: rape; test: Rape fertilizer test (topdressing); assay type: in vivo; conditions: topdressing 20 kg per mu
# Text: Test Two: Rape Fertilizer Test 1. Test Material: The tested fertilizer is the boron-containing synergistic urea developed and supplied by Beijing J-Tec Technology Co., Ltd. (the boron-containing synergistic urea (1) in Embodiment 3) while the control fertilizer is ordinary urea available in the market. Nanyang site: Yuanxiang Village, Nanyang Town, Qidong City of Jiangsu Province, an area of 4 mu, rape variety is “Shi Li Jia ? )”. Lvsi site: Nanxinqiao Village, […] Town, Qidong City, an area of 5 mu. 3. Test Method: the boron-containing synergistic urea is used as a topdressing fertilizer (additional fertilizer), 20 kg per mu; while the control field adopts ordinary urea (commercially available), 20 kg per mu. 4. Assessment Content: prior to harvest, field assessments such as density, plant height, effective branch, yield structure are conducted; after harvest, recount the actual yield, and the results are shown in Table 3.
# [4] = test system: apple tree; test: Apple tree fertilizer test (equivalent and decrement fertilizer); assay type: in vivo, apple tree (Red Fuji apple); conditions: Control Test Area, ordinary urea 70 kg per mu
# Text: Test Five: Apple Tree Fertilizer Test 1. Test Fertilizer: the tested fertilizer is the boron-containing synergistic urea developed and supplied by Beijing J-Tec Technology Co., Ltd. (the boron-containing synergistic urea (1) in Embodiment 3) while the control fertilizer is ordinary small granular urea and large granular urea in line with national standards the tested fruit tree is apple tree (variety of “Red Fuji apple”, ? ). 2. Test Site: […], Shandong Province, 3. Tested Variety: apple tree of four years old, variety is Red Fuji apple, planting space is 2 m×3 m, plants with moderate growth, similar tree vigor, and substantially consistent yield, and conventional orchard management is conducted before the test. 4. Test Method: equivalent fertilizer test area and decrement fertilizer test area are arranged, two treatment areas are provided in each test area, 3 tested plants are included in each treatment area and each treatment area is arranged repeatedly for 3 times, ranked in random area and group; The fertilizer is applied in small holes near the plants, and the fertilizing periods are fertilizer application after leaves falling in autumn and additional fertilizer application during fruit expanding period (July and August). Treatment Area 1: the boron-containing synergistic urea is applied, calculated by 70 kg per mu, and flushed together with water; Treatment Area 2: ordinary small granular urea (as a control area, ck), calculated by 70 kg per mu, and flushed together with water. Treatment Area 1: the boron-containing synergistic urea is applied with a decrement of 20%, calculated by 56 kg per mu, base fertilizer and additional fertilizer each makes up 50%; Treatment Area 2: ordinary large granular urea (as a control area, ck), calculated by 70 kg per mu, base fertilizer and additional fertilizer each makes up 50%. Make statistical analysis to flowering numbers and petal numbers in each flower during full-blossom period in spring, and make statistical analysis to fruit setting percentage after full-blossom period and before flower thinning. Measure and record once a month after growth of new shoots; Pick 30 fruits randomly from different portions after fruit ripening, and weigh the single fruit with an electronic balance scale, measure the longitudinal diameter and the transverse diameter with a vernier caliper; observe the fruit surface and the coloring of the fruit; determine the hardness of fruit with a hardometer.
# [5] = test system: soybean; test: Soybean fertilizer field plot test; assay type: in vivo
# Text: Test One: Soybean Fertilizer Test During the process of growth, the moisture and temperature are basically normal, which have no particular influence on the test. The basic information for the test plot is: mound albic soil, organic matter content 3.73%, and thickness of black soil layer is 18-20 cm, 1. The tested fertilizer is the boron-containing synergistic urea developed and supplied by Beijing J-Tec Technology Co., Ltd. (the boron-containing synergistic urea (1) in Embodiment 3) while the control fertilizer is ordinary urea available in the market. 2. Field tests adopt plot test (the test plot is located in Haluo Town, […], Shandong Province), three test areas are provided, each test area is divided into three treatment areas, each treatment area is 25.2 m^2, and the three test areas are tested in parallel. Apply base fertilizers uniformly in each test area and sow 4 rows in each treatment area, and subsequently apply additional fertilizers in the three treatment areas as below: Treatment Area 1: additionally apply 5 kg boron-containing synergistic urea once per mu in the flowering and pod bearing period of the soybean; Treatment Area 2: additionally apply 4 kg boron-containing synergistic urea once per mu in the flowering and pod bearing period of the soybean; Treatment Area 3 (control area, ck): additionally apply 5 kg ordinary urea once per mu in the flowering and pod bearing period of the soybean as a control; 4. Adopt normal field management in the growth period of the soybean, harvest and monitor the yield in the mature period respectively, and take the average values of the corresponding treatment areas in the three test areas as the statistical results, see Table 1.
# [6] = test system: bacterial wilt; test: Tomato disease resistance: incidence of bacterial wilt; assay type: in vivo; conditions: tomato plants in test area vs control area (ck)
# Text: as §1, §2
# 1. Tomato Growing Potential and Disease Resistance
# [7] = Decrement fertilizer test (56 kg per mu) and its control (70 kg per mu)
# [8] = Decrement fertilizer test (synergistic urea 56 kg per mu) and its control (large granular urea 70 kg per mu)
# [9] = Equivalent fertilizer test and its control, 70 kg per mu
# [10] = Equivalent fertilizer test and its control, 70 kg per mu, flushed with water
# [11] = Lvsi site, two months after fertilizer application
# [12] = Nanyang site, two months after fertilizer application
# [13] = Treatment Area 1 / 3 (ck): 5 kg per mu
# [14] = Treatment Area 1 / 3 (ck): 5 kg per mu once in flowering and pod bearing period
smiles,measurement,setting,value
"NC(N)=O [ordinary large granular urea, urea]",Yield,"[1]; 20% decrement fertilizer test, 1st plot, synergistic urea 56 kg per mu, control large granular urea 70 kg per mu",6.8 kg
same,Yield,"[1]; 20% decrement fertilizer test, 2nd plot, synergistic urea 56 kg per mu, control large granular urea 70 kg per mu",6.0 kg
same,Yield,"[1]; 20% decrement fertilizer test, 3rd plot, synergistic urea 56 kg per mu, control large granular urea 70 kg per mu",5.7 kg
same,Yield,"[1]; 20% decrement fertilizer test, three plots in total, synergistic urea 56 kg per mu, control 70 kg per mu",18.5 kg
same,observation of celery leaves,"[1]; Decrement fertilizer test, 30 days after sowing",green and thin leaves
same,Average Yield among three plots,[2]; [7],116.0 kg
same,Average Yield per mu,[2]; [7],3896.7 kg
same,Yield 1st plot,[2]; [8],114.3 kg
same,Yield 2nd plot,[2]; [8],118.1 kg
same,Yield 3rd plot,[2]; [8],115.6 kg
"NC(N)=O [ordinary small granular urea, urea]",Yield,"[1]; Equivalent fertilizer test, 70 kg per mu, 1st plot (1 m x 1.45 m), 52 days after applying fertilizer",6.6 kg
same,Yield,"[1]; Equivalent fertilizer test, 70 kg per mu, 2nd plot, 52 days after applying fertilizer",7.5 kg
same,Yield,"[1]; Equivalent fertilizer test, 70 kg per mu, 3rd plot, 52 days after applying fertilizer",8.15 kg
same,Yield,"[1]; Equivalent fertilizer test, 70 kg per mu, three plots in total",22.25 kg
same,Average Yield among three plots,[2]; [9],114.5 kg
same,Average Yield per mu,[2]; [9],3863.3 kg
same,Yield 1st plot,[2]; [10],111.6 kg
same,Yield 2nd plot,[2]; [10],113.8 kg
same,Yield 3rd plot,[2]; [10],118.0 kg
"NC(N)=O [ordinary urea, urea]",1000-Grain Weight,[3]; Average of the two test sites,4.1 g
same,Density,[3]; Average of the two test sites,5550 plant
same,Effective Branch,[3]; Average of the two test sites,27 each
same,Grains per pod,[3]; Average of the two test sites,19.8 grain
same,Plant Height,[3]; Average of the two test sites,190.5 cm
same,Yield,[3]; Average of the two test sites,262.7 kg/mu
same,pods per plant,[3]; Average of the two test sites,583 pod
same,Yield,[3]; Lvsi site,251.7 kg/mu
same,1000-Grain Weight,[3]; [11],3.7 g
same,Density,[3]; [11],5550 plant
same,Effective Branch,[3]; [11],26 each
same,Grains per pod,[3]; [11],20.5 grain
same,Plant Height,[3]; [11],185 cm
same,pods per plant,[3]; [11],598 pod
same,Yield,[3]; Nanyang site,269.5 kg/mu
same,1000-Grain Weight,[3]; [12],4.5 g
same,Density,[3]; [12],5550 plant
same,Effective Branch,[3]; [12],28 each
same,Grains per pod,[3]; [12],19 grain
same,Plant Height,[3]; [12],196 cm
same,pods per plant,[3]; [12],568 pod
same,Fruit Setting Percentage,[4],74.6%
same,Increment of New Shoots,[4],34.50 cm
same,Leaf Weight,[4],79.74 g
same,Single Fruit Weight,[4],202.1 g
same,Practical Yield,[5]; [13],131.8 kg/mu
same,Theoretical Yield,[5]; [13],134.5 kg/mu
same,100-Grain Weight,[5]; [14],15.7 g
same,Diseased Grain Rate,[5]; [14],9.7%
same,Grains Weight,[5]; [14],7.5 g/Plant
same,Grains per Plant,[5]; [14],65.8 Grains/Plant
same,Plant Height,[5]; [14],77.4 cm
same,Unfilled Grains,[5]; [14],28.9 Grains/Plant
same,Worm Eaten Rate,[5]; [14],17.9%
same,pods per plant,[5]; [14],30.1 Pods/Plant
same,incidence of bacterial wilt,[6],4.54%
